Data taken from patent US12434076B2, “Low energy immune priming for treating cancer and metastasis” (priority 2017, dated 2025).

Key:
RM1 tumor = RM1 tumor growth in C57Bl/6 mice (LOFU, 17AAG); type: in vivo, mouse; settings: for tumor volume: intraperitoneal, three times a week, untreated tumor 1879±98.65 mm^3
Protocol: (§1) This protocol yielded an approximate in situ spatial-peak temporal-average acoustic intensity of 270 W/cm^2, resulting in estimated average infra-tumoral temperature elevation of 3.2° C. Post-treatment, there were no signs of normal tissue toxicity such as alopecia, thermal damage, or skin wounds. […] Control mice were injected with equal volume of the vehicle DMSO, which was used to solubilize 17AAG.
(§2) Tumor model and treatment; C57Bl/6 and BalbC nu/nu mice were injected subcutaneously with 1×10^5 RM-1 (murine prostate cancer cell line) and 1×10^6 PC3 (human prostate cancer cell line) cells on the flank, respectively. Approximately 10 days later, the tumor became palpable (3-5 mm in diameter), whereupon LOFU treatment was initiated. […] Palpable tumors were treated with LOFU every 3-4 days for five fractions administered over two weeks. Animals received 17AAG three times a week during this time. Tumor volume measurements were performed twice weekly using Vernier calipers along with simultaneous physical assessment of signs of systemic toxicity (malaise and diarrhea).

[1] = Toxicity and dose finding of 17AAG in mice; type: in vivo, mouse
Protocol: as §1
Thus, these dose levels were selected for the current study. The goal was to combine two therapies that are nontoxic, albeit subtherapeutic, and examine whether the combination can be therapeutic. […] To detect the level of ER stress, the expression levels of ER chaperones, ERp44, ERp57, and ERp72 were quantitated among different treatment groups. ERp44 is responsible for oxidative protein folding. ERp57 is an ER resident thiol disulfide oxidoreductase while Erp72 is a disulfide isomerase. All these proteins participate in the protein folding machinery of the ER.
as §2
Kaplan-Meier Survival analysis: Mice survival/mortality in different treatment groups was analyzed by Kaplan-Meier as a function of radiation dose using Sigma-Plot and GraphPad Prism (version 4.0 for OS X, San Diego, CA, USA) software.

[2] = system: human hepatocellular carcinoma cell lines (HepG2, Hep3B, Huh7); test: Cell growth and cell death of human HCC cell lines (LOFU, WP1066); type: cell-based; settings: WP1066 added prior LOFU treatment
TPSA23 tumor cells = test: Clonogenic assay, TPSA23; type: cell-based, murine

For `C=CCNC1=C2C[C@@H](C)C[C@H](OC)[C@H](O)[C@@H](C)/C=C(\C)[C@H](OC(N)=O)[C@@H](OC)/C=C\C=C(/C)C(=O)NC(=CC1=O)C2=O` [17AAG, 17-N-allylamino-17-demethoxygeldanamycinan], the “average estimated tumor growth slower compared to control group” value (RM1 tumor; 17AAG 25 mg/kg body weight) was 9%, the “interval within which all animals achieved tumor size 2000 mm^3” value (RM1 tumor; 17AAG 25 mg/kg body weight) was 26 to 30 days and the tumor volume (RM1 tumor; 17AAG 50 mg/kg b.w.) was 964 mm3. The tumor volume (RM1 tumor; 17AAG 75 mg/kg b.w.) was 485±24.25 mm3, the “death of mice (Kaplan Meier survival analysis)” value ([1]; 75 mg/kg of body weight, after 21 days of treatment, C57Bl/6 mice) was 50% and the “low dose found to be nontoxic” value ([1]; Balb/c nude mice) was 14 mg/kg. For the same compound, the “low dose found to be nontoxic” value ([1]; C57Bl/6 mice) was 25 mg/kg and the “normal tissue toxic effect” value ([1]; low dose 17AAG 25 mg/kg body weight) was “did not show any normal tissue toxic effect”.
In the case of `C[C@H](NC(=O)/C(C#N)=C/c1cccc(Br)n1)c1ccccc1` [WP1066], the inducing cell death [2] is reported as “superior effect on inducing cell death”.
For `CNC(=O)c1ccc(N2C(=S)N(c3cnc(C#N)c(C(F)(F)F)c3)C(=O)C23CCC3)cc1F` [apalutamide], the “clonogenicity (colonies)” value (TPSA23 tumor cells; 5 μM apalutamide in combination with LOFU, vs apalutamide or LOFU alone) was “significantly fewer colonies”, the clonogenicity (TPSA23 tumor cells; 10 μM apalutamide alone) was “significant reduction in clonogenicity” and the clonogenicity (TPSA23 tumor cells; 10 μM apalutamide in combination with LOFU) was “still more effective”.
